Assay results as given in US10722520B2, “Heterocyclic compounds and their use in preventing or treating bacterial infections” (MUTABILIS, priority 2016, dated 2020).
Counter-ions that a name gives are not always drawn. Like-named read-outs stand apart in the source and are kept apart here.

Assays:
OXA-15 = OXA-15 (Pseudomonas aeruginosa, UniProt Q51574); assay: biochemical
AmpC (P99) = AmpC (P99) (Enterobacter cloacae, UniProt P05364); assay: biochemical
E. coli 190317 = assay: MIC of compound alone, broth microdilution; type: cell-based; settings: Escherichia coli; strain 190317; compound alone; read-out: MIC compounds of the invention alone
Protocol: (§1) Log phase bacterial suspensions were adjusted to a final density of 5×10^5 cfu/mL in cation-adjusted Mueller-Hinton broth (Becton-Dickinson) and added to each well (98 μL). Microplates were incubated for 16-20 h at 35° C. in ambient air. The MIC of the compounds was defined as the lowest concentration of said compounds that prevented bacterial growth as read by visual inspection.

K. pneumoniae 6299 = assay: MIC of compound alone, broth microdilution; type: cell-based; settings: Klebsiella pneumoniae; strain 6299; compound alone; read-out: MIC compounds of the invention alone
Protocol: as §1

E. cloacae P99 = assay: MIC of compound alone, broth microdilution; type: cell-based; settings: Enterobacter cloacae; strain P99; compound alone; read-out: MIC compounds of the invention alone
Protocol: as §1

K. pneumoniae BAA-1898 = assay: MIC of compound alone, broth microdilution; type: cell-based; settings: Klebsiella pneumoniae, BAA1898; strain BAA-1898; compound alone; read-out: MIC compounds of the invention alone
Protocol: as §1

P. aeruginosa CIP107051 = assay: MIC of compound alone, broth microdilution; type: cell-based; settings: Pseudomonas aeruginosa; strain CIP107051; compound alone; read-out: MIC compounds of the invention alone
Protocol: as §1

KPC-2 = KPC-2 (Klebsiella pneumoniae, UniProt Q9F663)
OXA-48 = OXA-48 (Klebsiella pneumoniae, UniProt Q6XEC0)
OXA-1 = OXA-1 (Escherichia coli, UniProt P13661)
CTX-M-15 = CTX-M-15 (Escherichia coli, UniProt Q9EXV5)
CMY-37 = CMY-37 (Citrobacter freundii, UniProt P05193); settings: read-out: IC50 β-lactamase CMY-37
OXA-11 = OXA-11 (Pseudomonas aeruginosa, UniProt Q06778)
AmpC (PAE) = AmpC (PAE) (Pseudomonas aeruginosa, UniProt P24735); assay: biochemical
SHV-1 = SHV-1 (Klebsiella pneumoniae, UniProt P0AD64)
TEM-1 = TEM-1 (Escherichia coli, UniProt P62593)
[1] = class (C), nitrocefin 200 μM, 30-min pre-incubation, enzyme 0.2 nM

Structure (SMILES)	IC50 (OXA-15) [µM]	IC50 (AmpC (P99)) [µM]	MIC (E. coli 190317) [mg/L]	MIC (K. pneumoniae 6299) [mg/L]	MIC (E. cloacae P99) [mg/L]	MIC (K. pneumoniae BAA-1898) [mg/L]	MIC (P. aeruginosa CIP107051) [mg/L]	IC50 (KPC-2) [µM]	IC50 (OXA-48) [µM]	IC50 (OXA-1) [µM]	IC50 (CTX-M-15) [µM]	IC50 (CMY-37; [1]) [µM]	IC50 (OXA-11) [µM]	IC50 (AmpC (PAE)) [µM]	IC50 (SHV-1) [µM]	IC50 (TEM-1) [µM]	IC50 (CMY-37) [µM]
O=C1N2CC(n3cc(N4CCNCC4)cn3)=CC(C2)N1OS(=O)(=O)O (centres unmarked) [Example 42, 2,2,2-trifluoroacetate [7-oxo-3-(4-piperazin-4-ium-1-ylpyrazol-1-yl)-1,6-diazabicyclo[3.2.1]oct-3-en-6-yl]hydrogen sulfate]	0.034	0.086	4	> 32	16	> 32	> 32	0.076	0.0091	1.6	0.00047	0.059	0.85	0.18	0.0015	0.00031	
O=C1N2CC(n3ccc([C@H](O)CO)n3)=CC(C2)N1OS(=O)(=O)[O-].[Na+] (stereo partly drawn) [Example 76, sodium [3-[3-[(1S)-1,2-dihydroxyethyl]pyrazol-1-yl]-7-oxo-1,6-diazabicyclo[3.2.1]oct-3-en-6-yl]sulfate]	0.61	0.029	8	> 32	32	> 32	> 32	0.073	0.05	0.86	0.0021		0.26	0.21	0.0073	0.0018	
O=C(Nc1ccn(C2=CC3CN(C2)C(=O)N3OS(=O)(=O)[O-])n1)c1nccs1.[Na+] (centres unmarked) [Example 34, sodium {7-oxo-3-[3-(thiazole-2-carbonylamino)pyrazol-1-yl]-1,6-diazabicyclo[3.2.1]oct-3-en-6-yl}sulfate]	0.034	0.01	> 32	> 32	> 32	> 32	> 32	0.0085	0.0094	0.13	0.00092		0.013	0.056	0.0031	0.001	0.0062
NC(=O)CNCc1cn(C2=CC3CN(C2)C(=O)N3OS(=O)(=O)O)nn1 (centres unmarked) [Example 66, [3-(4-(2-(methylamino)acetamide)triazol-1-yl)-7-oxo-1,6-diazabicyclo[3.2.1]oct-3-en-6-yl]hydrogen sulfate]	0.0075	0.014	4	32	8	16	> 32	0.0061	0.00064	0.087	0.00054	0.026	0.14	0.25	0.0031	0.00036	
O=C(Nc1ncns1)c1ccn(C2=CC3CN(C2)C(=O)N3OS(=O)(=O)O)n1 (centres unmarked) [Example 79, [7-oxo-3-[3-(1,2,4-thiadiazol-5-ylcarbamoyl)pyrazol-1-yl]-1,6-diazabicyclo[3.2.1]oct-3-en-6-yl]hydrogen sulfate]	0.046	0.014	> 32	> 32	> 32	> 32	> 32	0.0044	0.0047	0.065	0.00046	0.0086	0.019	0.095	0.00098	0.00036	
O=C(NC1CCNCC1)c1ccn(C2=CC3CN(C2)C(=O)N3OS(=O)(=O)O)n1 (centres unmarked) [Example 32, (7-oxo-3-[3-(4-piperidylcarbamoyl)pyrazol-1-yl]-1,6-diazabicyclo[3.2.1]oct-3-en-6-yl) hydrogen sulfate]	0.039	0.029	8	32	16	16	> 32	0.0069	0.0015	0.079	0.001	0.059	0.027	0.21	0.0082	0.0011	
O=C(Nc1ccccn1)c1ccn(C2=CC3CN(C2)C(=O)N3OS(=O)(=O)[O-])n1.[Na+] (centres unmarked) [Example 80, sodium [7-oxo-3-[3-(2-pyridylcarbamoyl)pyrazol-1-yl]-1,6-diazabicyclo[3.2.1]oct-3-en-6-yl]sulfate]	0.011	0.0079	> 32	> 32	> 32	> 32	> 32	0.0026	0.00086	0.03	0.00029		0.0055	0.15	0.0014	0.00027	0.012
NCCONC(=O)c1cn(C2=CC3CN(C2)C(=O)N3OS(=O)(=O)O)nn1 (centres unmarked) [Example 63, [3-[4-(2-aminoethoxycarbamoyl)triazol-1-yl]-7-oxo-1,6-diazabicyclo[3.2.1]oct-3-en-6-yl]hydrogen sulfate]	0.041	0.019	8	> 32	16	32	> 32	0.0047	0.00097	0.052	0.00053	0.055	0.11	0.53	0.0069	0.00086	
O=C1N2CC(n3ccc(CO)n3)=CC(C2)N1OS(=O)(=O)O (centres unmarked) [Example 12, triethylammonium [3-[3-(hydroxymethyl)pyrazol-1-yl]-7-oxo-1,6-diazabicyclo[3.2.1]oct-3-en-6-yl]sulfate]	0.19	0.015	1	16	4	8	> 32	0.026	0.012	0.2	0.00053		0.07	0.052	0.0021	0.00041	
O=C1N2CC(n3cc(CO)nn3)=CC(C2)N1OS(=O)(=O)O (centres unmarked) [Example 64, sodium [3-[4-(hydroxymethyl)triazol-1-yl]-7-oxo-1,6-diazabicyclo[3.2.1]oct-3-en-6-yl]sulfate]	0.0087		2	32	4	8	> 32	0.007	0.0007	0.086	0.001		0.096		0.0029	0.00052	
O=C(Nc1cc[nH]n1)c1ccn(C2=CC3CN(C2)C(=O)N3OS(=O)(=O)[O-])n1.[Na+] (centres unmarked) [Example 85, sodium [7-oxo-3-[3-(pyrazol-3-ylcarbamoyl)pyrazol-1-yl]-1,6-diazabicyclo[3.2.1]oct-3-en-6-yl]sulfate]	0.016	0.011	32	> 32	> 32	> 32	> 32	0.0034	0.0017	0.022	0.00059		0.0075	0.13	0.0016	0.00035	
O=C(c1ccn(C2=CC3CN(C2)C(=O)N3OS(=O)(=O)[O-])n1)N1CCOCC1.[Na+] (centres unmarked) [Example 31, sodium (7-oxo-3-[3-(morpholine-4-carbonyl)pyrazol-1-yl]-1,6-diazabicyclo[3.2.1]oct-3-en-6-yl) sulfate]	0.088	0.015	> 32	> 32	> 32	> 32	> 32	0.011	0.003	0.064	0.00062		0.033	0.21	0.0044	0.0013	
